Experiments:
SKNBE (2) cells = test: Western blot of p-AKT and N-MYC in SKNBE(2) cells; type: cell-based, human; details: 24 hrs treatment, IGF stimulated
Method: Cells were stimulated with 50 ng/ml IGF for 30 min and used for lysate preparation. Proteins were quantitated by the BCA protein assay (Pierce). Equal amounts of protein were resolved by polyacrylamide gels, transferred to nitrocellulose membrane and probed by Western blot with the following primary antibodies: p-AKT(Ser473), API (Cell Signaling Technologies), N-MYC, CyclinD1 and β-actin (Santa Cruz Biotechnology).

BRD4 = BRD4 (Homo sapiens, UniProt O60885); test: BRD4 inhibition assay (region not distinguished); type: biochemical; details: for BRD4 inhibition: BRD4 regions 1 and 2
BRD4-1 = BRD4-1 (Homo sapiens (Human), UniProt O60885); test: BRD4 region 1 (BRD4-1) inhibition; type: biochemical
BRD4-2 = BRD4-2 (Homo sapiens (Human), UniProt O60885); test: BRD4 region 2 (BRD4-2) inhibition; type: biochemical
PI3Kβ = PI3Kβ (Homo sapiens (Human), UniProt P42338); test: PI3K beta isoform inhibition; type: biochemical
PI3Kδ = PI3Kδ (Homo sapiens (Human), UniProt O00329); test: PI3K delta isoform inhibition; type: biochemical
Text: Inhibitory activity can be determined routinely using known methods and also front commercial vendors offering this service for kinases and bromodomain proteins. […] In vivo, PI3K inhibition can be determined from target tissue biopsies by standard tissue processing to disrupt cells and then performing Western Blot analysis to determine the presence or absence of pAKT (substrate of PI3K) relative to a control sample. The activity of a compound of the invention as an inhibitor of a bromodomain-containing protein, such as a BET protein, such as BRD2, BRD3, BRD4, and/or BRDT, or an isoform or mutant thereof may be determined in vitro, in vivo, or in a cell line. In vitro assays include assays that determine inhibition of bromodomain-containing proteins. Alternatively, inhibitor binding may be determined by running a competition experiment where a provided compound is incubated with a bromodomain-containing protein, such as a BET protein bound to known ligands, labeled or unlabeled. For example, bromodomain inhibition can be determined in vitro using Alpha Screen Technology (http://www.reactionbiology.com/webapps/site/NewsPDFs/Bromodomain%20Assay%20Platform%20for%20Drug%/20Screening%20and%20Discovery.pdf). In vivo bromodomain inhibition can be determined indirectly by evaluating the amount of protect present of proteins whose genes' transcription is influenced or controlled by the bromodomain protein, for example, the MYCN protein transcription is controlled by BRD4 (J. E. Delmore et al., Cell 2011, 146, 904-917; A. Puissant, Cancer Discov. 2013, 3, 308-323). Bromodomain inhibition may also be predicted by in silico modeling as described below in the Examples.
Several TP Scaffold compounds (structures shown in FIG. 2 and Table 3) were tested for inhibition activity against isoforms of PI3K (alpha, beta, gamma, and delta isoforms) and the bromodomain protein BRD4 at regions 1 (BRD4-1) and 2 (BRD4-2).

PI3Kγ = PI3Kγ (Homo sapiens (Human), UniProt P48736); test: PI3K gamma isoform inhibition; type: biochemical
PI3Kα = PI3Kα (Homo sapiens (Human), UniProt P42336); test: PI3K alpha isoform inhibition; type: biochemical
HDAC = HDAC inhibitory activity, commercially available kit; type: biochemical; details: for HDAC inhibitory activity: 1, 10, 50 μM
[1] = system: MYCN amplified SKNBE(2) cells; test: Brd4 chromatin precipitation, quantitative PCR of MYCN promoter region; type: cell-based, human; details: 24 hours exposure
Method: MYCN amplified SKNBE(2) cells were exposed to inhibitors for 24 hours then chromatin was precipitated with Brd4 (rabbit polyclonal antibody) along with rabbit IgG as a negative control (IgG). Precipitated chromatin was analyzed for the MYCN gene (2 sites within the MYCN promoter region) by quantitative PCR and enrichment is shown as the percentage of total input DNA (FIG. 4). The negative control region primers amplify within a gene desert region approximately 1 Mb away from MYCN (MYC-N NR). Error bars represent ±SEM of triplicate data. P<0.05 as compared to positive control (paired t-test). Positive control: No inhibitor; IP with BRD4 antibody, Negative Control: No inhibitor, IP with rabbit IgG.

PI-3 kinases = details: cited from earlier work
breast cancer stem cells = details: decreased from 11%; tumors with high HER2; cited from earlier work

PI3Kβ, sequence (P42338 whole entry, canonical isoform): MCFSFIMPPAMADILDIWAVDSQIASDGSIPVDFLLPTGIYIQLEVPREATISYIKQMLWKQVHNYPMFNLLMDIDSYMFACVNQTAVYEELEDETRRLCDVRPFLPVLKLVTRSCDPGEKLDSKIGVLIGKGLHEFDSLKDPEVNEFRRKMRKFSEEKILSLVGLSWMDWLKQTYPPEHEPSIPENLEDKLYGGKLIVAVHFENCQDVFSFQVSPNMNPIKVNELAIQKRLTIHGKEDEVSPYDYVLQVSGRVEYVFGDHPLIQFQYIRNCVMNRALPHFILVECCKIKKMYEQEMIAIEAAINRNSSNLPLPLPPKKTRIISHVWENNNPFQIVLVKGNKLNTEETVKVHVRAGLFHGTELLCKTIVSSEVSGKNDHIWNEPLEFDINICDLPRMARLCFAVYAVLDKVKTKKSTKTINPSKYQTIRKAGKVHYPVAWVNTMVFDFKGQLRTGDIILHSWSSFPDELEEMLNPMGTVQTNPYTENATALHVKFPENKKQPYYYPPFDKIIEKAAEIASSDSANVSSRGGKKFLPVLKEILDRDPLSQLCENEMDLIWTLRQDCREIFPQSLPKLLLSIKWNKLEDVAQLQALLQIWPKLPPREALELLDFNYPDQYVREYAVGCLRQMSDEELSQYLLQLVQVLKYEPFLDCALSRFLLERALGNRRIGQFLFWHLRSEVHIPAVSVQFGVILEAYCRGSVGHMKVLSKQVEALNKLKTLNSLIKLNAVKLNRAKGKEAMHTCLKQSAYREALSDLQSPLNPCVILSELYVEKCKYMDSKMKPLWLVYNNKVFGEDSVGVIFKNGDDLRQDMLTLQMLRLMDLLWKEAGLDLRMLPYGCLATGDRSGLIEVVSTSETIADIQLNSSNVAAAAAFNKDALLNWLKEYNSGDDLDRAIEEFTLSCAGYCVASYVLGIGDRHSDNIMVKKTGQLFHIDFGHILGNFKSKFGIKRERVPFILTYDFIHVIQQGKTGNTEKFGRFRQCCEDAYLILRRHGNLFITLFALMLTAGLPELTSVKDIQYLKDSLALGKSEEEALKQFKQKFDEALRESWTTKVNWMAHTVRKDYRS
PI3Kβ, sequence (P27986 whole entry partner, canonical isoform): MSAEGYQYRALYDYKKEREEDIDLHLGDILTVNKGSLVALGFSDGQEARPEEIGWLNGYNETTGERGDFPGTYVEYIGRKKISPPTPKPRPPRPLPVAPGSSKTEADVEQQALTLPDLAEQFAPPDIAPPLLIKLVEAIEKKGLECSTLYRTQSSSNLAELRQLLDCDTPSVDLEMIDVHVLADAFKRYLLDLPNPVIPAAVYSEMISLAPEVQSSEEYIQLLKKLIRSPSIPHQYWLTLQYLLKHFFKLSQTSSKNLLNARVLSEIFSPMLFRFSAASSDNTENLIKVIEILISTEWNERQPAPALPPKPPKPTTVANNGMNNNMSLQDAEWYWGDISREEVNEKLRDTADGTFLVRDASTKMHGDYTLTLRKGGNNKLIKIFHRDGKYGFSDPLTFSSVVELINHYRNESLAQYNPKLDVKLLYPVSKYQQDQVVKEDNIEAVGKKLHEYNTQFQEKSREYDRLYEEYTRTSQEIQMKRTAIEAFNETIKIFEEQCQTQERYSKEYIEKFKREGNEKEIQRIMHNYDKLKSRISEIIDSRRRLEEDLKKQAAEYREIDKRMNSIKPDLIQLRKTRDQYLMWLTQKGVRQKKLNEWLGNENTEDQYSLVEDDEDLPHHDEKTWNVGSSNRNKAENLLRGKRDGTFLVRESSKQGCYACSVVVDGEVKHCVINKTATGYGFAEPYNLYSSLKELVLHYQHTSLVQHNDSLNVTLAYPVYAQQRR
PI3Kα, sequence (P42336 whole entry, canonical isoform): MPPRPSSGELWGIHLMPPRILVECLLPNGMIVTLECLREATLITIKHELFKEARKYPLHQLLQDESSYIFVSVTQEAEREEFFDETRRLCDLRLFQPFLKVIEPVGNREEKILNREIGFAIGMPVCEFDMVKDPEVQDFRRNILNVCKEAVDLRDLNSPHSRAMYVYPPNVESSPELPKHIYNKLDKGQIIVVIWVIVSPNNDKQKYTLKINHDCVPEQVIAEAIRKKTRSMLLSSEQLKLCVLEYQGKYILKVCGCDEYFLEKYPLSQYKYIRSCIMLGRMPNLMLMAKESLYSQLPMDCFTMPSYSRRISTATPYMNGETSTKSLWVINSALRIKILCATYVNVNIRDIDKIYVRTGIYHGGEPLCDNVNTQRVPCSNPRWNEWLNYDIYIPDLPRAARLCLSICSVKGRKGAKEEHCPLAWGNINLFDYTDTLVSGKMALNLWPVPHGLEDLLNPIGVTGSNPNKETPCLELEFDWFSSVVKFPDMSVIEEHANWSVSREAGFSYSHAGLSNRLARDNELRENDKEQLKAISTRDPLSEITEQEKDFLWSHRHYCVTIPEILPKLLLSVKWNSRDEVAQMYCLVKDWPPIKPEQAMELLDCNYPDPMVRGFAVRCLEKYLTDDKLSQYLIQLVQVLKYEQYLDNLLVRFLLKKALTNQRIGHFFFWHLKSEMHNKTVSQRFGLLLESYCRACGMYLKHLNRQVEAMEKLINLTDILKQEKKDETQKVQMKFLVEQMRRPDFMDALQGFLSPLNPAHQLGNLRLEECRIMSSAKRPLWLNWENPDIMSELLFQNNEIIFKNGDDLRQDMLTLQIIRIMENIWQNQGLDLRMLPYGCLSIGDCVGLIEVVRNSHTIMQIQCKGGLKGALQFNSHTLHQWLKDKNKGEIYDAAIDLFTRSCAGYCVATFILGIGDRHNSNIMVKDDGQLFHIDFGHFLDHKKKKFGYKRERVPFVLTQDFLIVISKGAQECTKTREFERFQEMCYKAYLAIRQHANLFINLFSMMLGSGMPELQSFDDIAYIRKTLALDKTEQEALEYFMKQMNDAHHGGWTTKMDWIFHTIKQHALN
PI3Kα, sequence (P27986 whole entry partner, canonical isoform): as the sequence (P27986 whole entry partner, canonical isoform) above
PI3Kγ, sequence (P48736 whole entry, canonical isoform): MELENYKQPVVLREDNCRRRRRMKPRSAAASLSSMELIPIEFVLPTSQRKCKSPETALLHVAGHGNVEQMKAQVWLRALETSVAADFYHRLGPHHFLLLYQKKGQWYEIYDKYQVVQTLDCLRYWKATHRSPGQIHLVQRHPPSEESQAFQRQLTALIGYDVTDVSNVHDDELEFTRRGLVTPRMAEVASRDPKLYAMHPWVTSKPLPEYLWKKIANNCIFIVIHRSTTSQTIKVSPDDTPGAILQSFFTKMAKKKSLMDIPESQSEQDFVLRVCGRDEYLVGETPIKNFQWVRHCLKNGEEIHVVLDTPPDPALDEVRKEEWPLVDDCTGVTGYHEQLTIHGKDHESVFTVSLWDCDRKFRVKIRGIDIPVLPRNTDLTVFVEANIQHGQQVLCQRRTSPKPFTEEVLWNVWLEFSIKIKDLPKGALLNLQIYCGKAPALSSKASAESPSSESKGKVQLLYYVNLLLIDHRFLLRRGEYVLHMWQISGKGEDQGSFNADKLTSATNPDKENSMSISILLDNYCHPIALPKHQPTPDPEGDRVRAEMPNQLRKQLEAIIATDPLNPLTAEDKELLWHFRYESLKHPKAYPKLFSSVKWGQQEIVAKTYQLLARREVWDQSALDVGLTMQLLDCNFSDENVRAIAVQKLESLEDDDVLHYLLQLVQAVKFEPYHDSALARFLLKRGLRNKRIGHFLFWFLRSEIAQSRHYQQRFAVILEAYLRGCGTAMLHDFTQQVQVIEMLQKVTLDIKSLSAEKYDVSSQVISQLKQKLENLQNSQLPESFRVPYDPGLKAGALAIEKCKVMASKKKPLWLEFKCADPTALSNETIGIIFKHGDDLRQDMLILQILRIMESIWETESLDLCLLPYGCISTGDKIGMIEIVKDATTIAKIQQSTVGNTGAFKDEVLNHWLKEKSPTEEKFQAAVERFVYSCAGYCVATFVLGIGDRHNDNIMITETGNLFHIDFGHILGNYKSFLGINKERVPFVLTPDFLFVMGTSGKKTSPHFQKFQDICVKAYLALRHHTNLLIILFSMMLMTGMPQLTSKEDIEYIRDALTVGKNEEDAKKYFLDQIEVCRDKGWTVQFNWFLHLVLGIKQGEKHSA
PI3Kδ, sequence (O00329 whole entry, canonical isoform): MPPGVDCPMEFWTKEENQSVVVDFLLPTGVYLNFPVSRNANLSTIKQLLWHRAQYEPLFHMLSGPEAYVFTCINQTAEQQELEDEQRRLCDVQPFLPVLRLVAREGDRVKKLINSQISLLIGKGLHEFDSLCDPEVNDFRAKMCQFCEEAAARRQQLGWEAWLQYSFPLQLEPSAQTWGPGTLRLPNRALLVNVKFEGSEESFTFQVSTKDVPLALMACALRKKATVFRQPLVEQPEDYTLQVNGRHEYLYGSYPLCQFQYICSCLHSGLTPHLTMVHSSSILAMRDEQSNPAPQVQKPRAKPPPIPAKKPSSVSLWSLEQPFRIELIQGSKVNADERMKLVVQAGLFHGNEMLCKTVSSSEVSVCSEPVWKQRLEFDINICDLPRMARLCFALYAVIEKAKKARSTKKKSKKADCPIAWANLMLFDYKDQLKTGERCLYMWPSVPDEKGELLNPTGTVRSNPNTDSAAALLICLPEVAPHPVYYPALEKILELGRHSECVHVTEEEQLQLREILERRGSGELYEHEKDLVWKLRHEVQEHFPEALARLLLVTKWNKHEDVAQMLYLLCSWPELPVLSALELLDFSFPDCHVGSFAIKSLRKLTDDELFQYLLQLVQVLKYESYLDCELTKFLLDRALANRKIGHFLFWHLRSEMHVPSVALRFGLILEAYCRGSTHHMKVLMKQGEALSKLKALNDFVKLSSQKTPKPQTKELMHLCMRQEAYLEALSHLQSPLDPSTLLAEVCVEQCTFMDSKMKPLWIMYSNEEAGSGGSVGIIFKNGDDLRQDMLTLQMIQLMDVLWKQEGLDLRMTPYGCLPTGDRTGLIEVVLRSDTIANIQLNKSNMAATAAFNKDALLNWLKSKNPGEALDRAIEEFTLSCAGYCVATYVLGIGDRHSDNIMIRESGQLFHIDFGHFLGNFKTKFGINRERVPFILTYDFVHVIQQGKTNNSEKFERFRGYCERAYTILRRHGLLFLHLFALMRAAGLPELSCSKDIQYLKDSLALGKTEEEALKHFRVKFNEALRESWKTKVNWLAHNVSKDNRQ
PI3Kδ, sequence (P27986 whole entry partner, canonical isoform): as the sequence (P27986 whole entry partner, canonical isoform) above

| SMILES | IC50 (BRD4-1) [nM] | IC50 (BRD4-2) [nM] | IC50 (PI3Kδ) [nM] | IC50 (PI3Kγ) [nM] | IC50 (PI3Kα) [nM] | other results |
| --- | --- | --- | --- | --- | --- | --- |
| Cn1c(=O)n(-c2ccc(C(C)(C)C#N)cc2)c2c3cc(-c4cnc5ccccc5c4)ccc3ncc21 [BEZ235] | – | – | – | – | – | pAKT, Western blot (SKNBE (2) cells): decreased pAKT |
| Nc1cc(C(F)(F)F)c(-c2cc(N3CCOCC3)nc(N3CCOCC3)n2)cn1 [BKM120] | – | – | – | – | – | BRD4 inhibition (BRD4): no BRD4 inhibition; pAKT, Western blot (SKNBE (2) cells): decreased pAKT |
| CC[C@H](Nc1ncnc2[nH]cnc12)c1nc2cccc(F)c2c(=O)n1-c1ccccc1 [CAL101] | – | – | – | – | – | IC50 (BRD4): > 50 µM; BRD4 inhibition (BRD4): no BRD4 inhibition; pAKT, Western blot (SKNBE (2) cells): decreased pAKT |
| O=c1cc(N2CCOCC2)oc2c(-c3ccccc3)csc12 [Cmpd 6] | 2170 | 3450 | 784 | 1570 | – | IC50 (PI3Kβ): 378 nM |
| O=c1cc(N2CCOCC2)oc2ccsc12 [Cmpd 10] | > 50000 | > 50000 | > 50000 | > 50000 | 7160 | IC50 (PI3Kβ): 9250 nM |
| Nc1cccc(-c2csc3c(=O)cc(N4CCOCC4)oc23)c1 [Cmpd 11, 3-(3-Amino-phenyl)-5-morpholin-4-yl-thieno[3,2-b]pyran-7-one] | 843 | 1740 | 9810 | 6300 | – | – |
| CCOC(=O)c1ccc(-c2csc3c(=O)cc(N4CCOCC4)oc23)cc1 [Cmpd 25] | 277 | 628 | 27 | 1170 | – | IC50 (PI3Kβ): 1750 nM |
| COC(=O)c1ccc(-c2csc3c(=O)cc(N4CCOCC4)oc23)cc1 [Cmpd 44, methyl 4-(5-morpholino-7-oxo-7H-thieno[3,2-b]pyran-3-yl)benzoate] | 811 | 1470 | 12 | 547 | – | IC50 (PI3Kβ): 3600 nM; BRD4 inhibition (BRD4): showed activity; HDAC inhibitory activity (HDAC): No inhibitor activity |
| O=C(O)c1ccc(-c2csc3c(=O)cc(N4CCOCC4)oc23)cc1 [Cmpd 100] | 1090 | 2760 | 295 | 259 | 55.2 | – |
| O=C(NO)c1ccc(-c2csc3c(=O)cc(N4CCOCC4)oc23)cc1 [Cmpd 118] | 193 | 235 | 53 | 806 | 90 | HDAC activity inhibited versus control (HDAC; 1 μM): 17%; HDAC activity inhibited versus control (HDAC; 10 μM): 25%; HDAC activity inhibited versus control (HDAC; 50 μM): 41%; HDAC inhibitory activity (HDAC): significant HDAC inhibitory activity |
| O=C(Nc1ccc(-c2csc3c(=O)cc(N4CCOCC4)oc23)cc1)c1ccncc1 [Cmpd 120] | 326 | 393 | 21 | 556 | 95 | – |
| O=C(Nc1ccc(-c2csc3c(=O)cc(N4CCOCC4)oc23)cc1)c1ccc(F)c(F)c1Nc1ccc(I)cc1F [Cmpd 121] | 255 | 2310 | – | – | < 10000 | – |
| CC(C)(C)c1cc(NC(=O)Nc2cccc(-c3csc4c(=O)cc(N5CCOCC5)oc34)c2)no1 [Cmpd 122, 1-(5-tert-Butyl-isoxazol-3-yl)-3-[3-(5-morpholin-4-yl-7-oxo-7H-thieno[3,2-b]pyran-3-yl)-phenyl]-urea] | 2570 | 4880 | 1350 | 8650 | 950 | – |
| O=C(Nc1cccc(-c2csc3c(=O)cc(N4CCOCC4)oc23)c1)Nc1ccc(Cl)c(C(F)(F)F)c1 [Cmpd 123, 1-(4-Chloro-3-trifluoromethyl-phenyl)-3-[3-(5-morpholin-4-yl-7-oxo-7H-thieno[3,2-b]pyran-3-yl)-phenyl]-urea] | > 50000 | > 50000 | 9750 | > 16700 | 7670 | – |
| O=c1cc(N2CCSCC2)oc2c(-c3ccc4c(c3)OCCO4)csc12 [Cmpd 124, 3-(2,3-Dihydrobenzo[b][1,4]dioxan-6-yl)-5-thiomorpholino-7H-thieno[3,2-b]pyran-7-one] | 519 | 2800 | 480 | 4630 | 1580 | – |
| O=c1cc(N2CCOCC2)oc2c(Br)csc12 [Cmpd 126, 3-Bromo-5-morpholin-4-yl-thieno[3,2-b]pyran-7-one] | > 50000 | > 50000 | 1480 | 2200 | – | – |
| O=c1cc(N2CCSCC2)oc2c(Br)csc12 [Cmpd 127, 3-Bromo-5-thiomorpholino-7H-thieno[3,2-b]pyran-7-one] | 32600 | 34200 | 3300 | 9770 | 1720 | – |
| O=c1cc(N2CCOCC2)oc2c(C#Cc3ccccc3)csc12 [Cmpd 128] | 4000 | 10700 | – | – | – | – |
| O=c1cc(N2CCOCC2)oc2c(-c3ccn[nH]3)csc12 [Cmpd 129, 5-Morpholino-3-(2H-pyrazol-3-yl)-4-oxa-1-thia-7-Indenone] | 2230 | 9410 | – | – | – | – |
| Cn1ncc2ccc(-c3csc4c(=O)cc(N5CCOCC5)oc34)cc21 [Cmpd 130, 3-(1-Methyl-1H-indazol-6-yl)-5-morpholino-4-oxa-1-thia-7-Indenone] | 349 | 695 | – | – | – | – |
| Cc1n[nH]c2cc(-c3csc4c(=O)cc(N5CCOCC5)oc34)ccc12 [Cmpd 131, 3-(3-Methyl-1H-indazol-6-yl)-5-morpholino-4-oxa-1-thia-7-Indenone] | 231 | 446 | – | – | – | – |
| CNC(=O)Nc1cccc(-c2csc3c(=O)cc(N4CCOCC4)oc23)c1 [Cmpd 133, 3-[m-(3-Methylureido)phenyl]-5-morpholino-4-oxa-1-thia-7-indenone] | 558 | 1120 | – | – | – | – |
| CN(C)C(=O)Nc1cccc(-c2csc3c(=O)cc(N4CCOCC4)oc23)c1 [Cmpd 134, 3-[m-(3-Dimethylureido)phenyl]-5-morpholino-4-oxa-1-thia-7-indenone] | 662 | 1850 | – | – | – | – |
| Cc1cccc(NC(=O)Nc2cccc(-c3csc4c(=O)cc(N5CCOCC5)oc34)c2)c1 [Cmpd 135, 5-Morpholino-3-{m-[3-(m-tolyl)ureido]phenyl}-4-oxa-1-thia-7-indenone] | 646 | 1270 | – | – | – | – |
| O=C(Nc1cccc(-c2csc3c(=O)cc(N4CCOCC4)oc23)c1)Nc1cccc(C(F)(F)F)c1 [Cmpd 136] | 6150 | 1260 | – | – | – | – |
| Cc1ccc(C)c(NC(=O)Nc2cccc(-c3csc4c(=O)cc(N5CCOCC5)oc34)c2)c1 [Cmpd 137, 5-Morpholino-3-{m-[3-(2,5-xylyl)ureido]phenyl}-4-oxa-1-thia-7-indenone] | 748 | 1260 | – | – | – | – |
| O=c1cc(N2CCOCC2)oc2c(-c3ccccc3)cccc12 [LY294002, 2-(4-morpholinyl)-8-phenyl-4H-1-benzopyran-4-one] | 5330 | 13100 | 3220 | – | – | MYCN protein quantity, Western blot (SKNBE (2) cells): decreased; pAKT, Western blot (SKNBE (2) cells): decreased; MYCN expression (Brd4 ChIP, MYCN promoter) [1]: significantly repressed MYCN expression; IC50 (PI-3 kinases): 1400 nM |
| O=c1cc(N2CCNCC2)oc2c(-c3ccccc3)cccc12 [LY303511] | – | – | – | – | – | MYCN protein quantity, Western blot (SKNBE (2) cells): inhibited only MYCN quantities; MYCN expression (Brd4 ChIP, MYCN promoter) [1]: significantly repressed MYCN expression |
| CS(=O)(=O)CCNCc1ccc(-c2ccc3ncnc(Nc4ccc(OCc5cccc(F)c5)c(Cl)c4)c3c2)o1 [Lapatinib] | – | – | – | – | – | breast cancer stem cells, % of cells after treatment (breast cancer stem cells): 5% |

From patent US9505780B2, “Thienopyranones as kinase and epigenetic inhibitors” (SignalRx Pharmaceuticals, Inc., priority 2014, dated 2016)
